# What was measured:
# [1] = target: Serine/threonine-protein kinase Nek1 (Homo sapiens) (UniProt Q96PY6); conditions: Compound concentration 100.0 nM
# [2] = target: Ribosomal protein S6 kinase beta-1 (Homo sapiens) (UniProt P23443); conditions: Compound concentration 100.0 nM
# [3] = target: Dual specificity mitogen-activated protein kinase kinase 5 (Homo sapiens) (UniProt Q13163); conditions: Compound concentration 100.0 nM
# [4] = target: Receptor-type tyrosine-protein kinase FLT3 (Homo sapiens) (UniProt P36888); conditions: Compound concentration 100.0 nM
# [5] = system: Hepatocyte growth factor receptor (Homo sapiens), P08581 [Y1235D]; conditions: Compound concentration 100.0 nM
# [6] = target: Mitogen-activated protein kinase kinase kinase 7 (Homo sapiens) (UniProt O43318); conditions: Compound concentration 100.0 nM
# [7] = target: Serine/threonine-protein kinase WNK2 (Homo sapiens) (UniProt Q9Y3S1); conditions: Compound concentration 100.0 nM
# [8] = target: Serine/threonine-protein kinase LATS2 (Homo sapiens) (UniProt Q9NRM7); conditions: Compound concentration 100.0 nM
# [9] = target: Muscarinic acetylcholine receptor M2 (Homo sapiens) (UniProt P08172); conditions: Compound concentration 10.0 uM
# [10] = target: Non-receptor tyrosine-protein kinase TNK1 (Homo sapiens) (UniProt Q13470); conditions: Compound concentration 100.0 nM
# [11] = system: Receptor-type tyrosine-protein kinase FLT3 (Homo sapiens), P36888 [D835H]; conditions: Compound concentration 100.0 nM
# [12] = target: Serine/threonine-protein kinase mTOR (Homo sapiens) (UniProt P42345); conditions: Compound concentration 100.0 nM
# [13] = target: Serine/threonine-protein kinase 10 (Homo sapiens) (UniProt O94804); conditions: Compound concentration 100.0 nM
# [14] = target: Hepatocyte growth factor receptor (Homo sapiens) (UniProt P08581); conditions: Compound concentration 100.0 nM
# [15] = target: Tyrosine-protein kinase receptor Tie-1 (Homo sapiens) (UniProt P35590); conditions: Compound concentration 100.0 nM
# [16] = target: Ephrin type-B receptor 1 (Homo sapiens) (UniProt P54762); conditions: Compound concentration 100.0 nM
# [17] = target: Phosphatidylinositol 4,5-bisphosphate 3-kinase catalytic subunit gamma isoform (Homo sapiens) (UniProt P48736); conditions: Compound concentration 100.0 nM
# [18] = target: Serine/threonine-protein kinase TNNI3K (Homo sapiens) (UniProt Q59H18); conditions: Compound concentration 100.0 nM
# [19] = target: Ephrin type-A receptor 1 (Homo sapiens) (UniProt P21709); conditions: Compound concentration 100.0 nM
# [20] = target: Serine/threonine-protein kinase PLK3 (Homo sapiens) (UniProt Q9H4B4); conditions: Compound concentration 100.0 nM
# [21] = target: Protein kinase C theta type (Homo sapiens) (UniProt Q04759); conditions: Compound concentration 100.0 nM
# [22] = target: Tyrosine-protein kinase JAK1 (Homo sapiens) (UniProt P23458); conditions: Compound concentration 100.0 nM
# [23] = target: Calcium-dependent protein kinase 1 (Plasmodium falciparum) (UniProt P62344); conditions: Compound concentration 100.0 nM
# [24] = target: Myosin light chain kinase, smooth muscle (Homo sapiens) (UniProt Q15746); conditions: Compound concentration 100.0 nM
# [25] = system: Epidermal growth factor receptor (Homo sapiens), P00533 [L858R]; conditions: Compound concentration 100.0 nM
# [26] = target: Muscarinic acetylcholine receptor M3 (Homo sapiens) (UniProt P20309); conditions: Compound concentration 10.0 uM
# [27] = target: Dual specificity mitogen-activated protein kinase kinase 4 (Homo sapiens) (UniProt P45985); conditions: Compound concentration 100.0 nM
# [28] = target: Protein kinase C iota type (Homo sapiens) (UniProt P41743); conditions: Compound concentration 100.0 nM
# [29] = target: Hormonally up-regulated neu tumor-associated kinase (Homo sapiens) (UniProt P57058); conditions: Compound concentration 100.0 nM
# [30] = target: Serine/threonine-protein kinase Nek10 (Homo sapiens) (UniProt Q6ZWH5); conditions: Compound concentration 100.0 nM
# [31] = target: Cyclin-dependent kinase 14 (Homo sapiens) (UniProt O94921); conditions: Compound concentration 100.0 nM
# [32] = target: Activin receptor type-1B (Homo sapiens) (UniProt P36896); conditions: Compound concentration 100.0 nM
# [33] = target: Ribosomal protein S6 kinase alpha-1 (Homo sapiens) (UniProt Q15418); conditions: Compound concentration 100.0 nM
# [34] = target: Phosphatidylinositol 4-phosphate 5-kinase type-1 alpha (Homo sapiens) (UniProt Q99755); conditions: Compound concentration 100.0 nM
# [35] = target: Tyrosine-protein kinase Fer (Homo sapiens, UniProt P16591); conditions: Compound concentration 100.0 nM
# [36] = target: Tyrosine-protein kinase ABL2 (Homo sapiens) (UniProt P42684); conditions: Compound concentration 100.0 nM
# [37] = target: Tyrosine-protein kinase HCK (Homo sapiens) (UniProt P08631); conditions: Compound concentration 100.0 nM
# [38] = target: Ribosomal protein S6 kinase alpha-1 (Homo sapiens) (UniProt Q15418); conditions: Compound concentration 100.0 nM; remark: listed apart in the source
# [39] = target: Serine/threonine-protein kinase WNK3 (Homo sapiens) (UniProt Q9BYP7); conditions: Compound concentration 100.0 nM
# [40] = target: Inhibitor of nuclear factor kappa-B kinase subunit epsilon (Homo sapiens) (UniProt Q14164); conditions: Compound concentration 100.0 nM
# [41] = target: Phosphorylase b kinase regulatory subunit alpha, liver isoform (Homo sapiens) (UniProt P46019); conditions: Compound concentration 100.0 nM
# [42] = target: Serine/threonine-protein kinase PLK4 (Homo sapiens) (UniProt O00444); conditions: Compound concentration 100.0 nM
# [43] = target: Receptor-interacting serine/threonine-protein kinase 1 (Homo sapiens) (UniProt Q13546); conditions: Compound concentration 100.0 nM
# [44] = target: Calcium/calmodulin-dependent protein kinase type 1G (Homo sapiens) (UniProt Q96NX5); conditions: Compound concentration 100.0 nM
# [45] = target: Platelet-derived growth factor receptor beta (Homo sapiens) (UniProt P09619); conditions: Compound concentration 100.0 nM
# Ribosomal protein S6 kinase alpha-1 (Homo sapiens), sequence (Q15418 whole entry): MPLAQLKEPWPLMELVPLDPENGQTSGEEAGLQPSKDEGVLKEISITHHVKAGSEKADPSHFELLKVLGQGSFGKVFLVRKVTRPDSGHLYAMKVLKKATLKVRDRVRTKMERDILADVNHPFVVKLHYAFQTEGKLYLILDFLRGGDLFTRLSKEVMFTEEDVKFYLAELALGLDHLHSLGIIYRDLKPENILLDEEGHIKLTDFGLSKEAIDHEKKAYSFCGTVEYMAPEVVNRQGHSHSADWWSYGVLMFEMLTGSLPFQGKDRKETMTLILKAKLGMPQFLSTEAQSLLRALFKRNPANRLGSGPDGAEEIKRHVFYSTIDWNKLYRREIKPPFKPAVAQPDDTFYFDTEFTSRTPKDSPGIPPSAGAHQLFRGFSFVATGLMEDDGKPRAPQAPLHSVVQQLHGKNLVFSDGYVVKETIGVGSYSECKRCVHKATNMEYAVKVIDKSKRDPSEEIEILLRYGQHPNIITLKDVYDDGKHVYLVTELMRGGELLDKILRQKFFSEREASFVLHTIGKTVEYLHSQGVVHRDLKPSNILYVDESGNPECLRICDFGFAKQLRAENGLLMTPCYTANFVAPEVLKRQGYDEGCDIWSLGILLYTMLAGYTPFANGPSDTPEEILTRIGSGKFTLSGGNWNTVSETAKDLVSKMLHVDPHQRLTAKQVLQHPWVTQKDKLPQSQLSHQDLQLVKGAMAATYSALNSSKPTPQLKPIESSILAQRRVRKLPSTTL
# Muscarinic acetylcholine receptor M3 (Homo sapiens), sequence (P20309 whole entry, looked up): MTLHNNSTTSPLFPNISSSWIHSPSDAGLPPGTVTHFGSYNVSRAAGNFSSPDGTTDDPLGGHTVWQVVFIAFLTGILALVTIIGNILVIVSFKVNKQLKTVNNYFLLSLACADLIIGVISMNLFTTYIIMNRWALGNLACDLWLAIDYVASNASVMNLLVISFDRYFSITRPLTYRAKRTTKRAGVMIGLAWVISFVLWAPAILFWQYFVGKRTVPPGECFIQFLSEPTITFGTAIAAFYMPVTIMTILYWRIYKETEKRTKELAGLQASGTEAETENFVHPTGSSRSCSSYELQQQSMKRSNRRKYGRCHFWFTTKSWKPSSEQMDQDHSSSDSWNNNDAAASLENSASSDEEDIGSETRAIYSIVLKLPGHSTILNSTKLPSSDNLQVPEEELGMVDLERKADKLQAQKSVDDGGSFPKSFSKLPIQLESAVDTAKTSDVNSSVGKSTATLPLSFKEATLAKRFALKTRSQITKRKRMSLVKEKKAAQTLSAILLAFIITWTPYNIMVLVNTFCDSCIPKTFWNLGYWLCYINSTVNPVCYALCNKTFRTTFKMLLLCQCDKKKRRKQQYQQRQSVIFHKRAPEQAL
# Phosphorylase b kinase regulatory subunit alpha, liver isoform (Homo sapiens), sequence (P46019 whole entry, canonical isoform): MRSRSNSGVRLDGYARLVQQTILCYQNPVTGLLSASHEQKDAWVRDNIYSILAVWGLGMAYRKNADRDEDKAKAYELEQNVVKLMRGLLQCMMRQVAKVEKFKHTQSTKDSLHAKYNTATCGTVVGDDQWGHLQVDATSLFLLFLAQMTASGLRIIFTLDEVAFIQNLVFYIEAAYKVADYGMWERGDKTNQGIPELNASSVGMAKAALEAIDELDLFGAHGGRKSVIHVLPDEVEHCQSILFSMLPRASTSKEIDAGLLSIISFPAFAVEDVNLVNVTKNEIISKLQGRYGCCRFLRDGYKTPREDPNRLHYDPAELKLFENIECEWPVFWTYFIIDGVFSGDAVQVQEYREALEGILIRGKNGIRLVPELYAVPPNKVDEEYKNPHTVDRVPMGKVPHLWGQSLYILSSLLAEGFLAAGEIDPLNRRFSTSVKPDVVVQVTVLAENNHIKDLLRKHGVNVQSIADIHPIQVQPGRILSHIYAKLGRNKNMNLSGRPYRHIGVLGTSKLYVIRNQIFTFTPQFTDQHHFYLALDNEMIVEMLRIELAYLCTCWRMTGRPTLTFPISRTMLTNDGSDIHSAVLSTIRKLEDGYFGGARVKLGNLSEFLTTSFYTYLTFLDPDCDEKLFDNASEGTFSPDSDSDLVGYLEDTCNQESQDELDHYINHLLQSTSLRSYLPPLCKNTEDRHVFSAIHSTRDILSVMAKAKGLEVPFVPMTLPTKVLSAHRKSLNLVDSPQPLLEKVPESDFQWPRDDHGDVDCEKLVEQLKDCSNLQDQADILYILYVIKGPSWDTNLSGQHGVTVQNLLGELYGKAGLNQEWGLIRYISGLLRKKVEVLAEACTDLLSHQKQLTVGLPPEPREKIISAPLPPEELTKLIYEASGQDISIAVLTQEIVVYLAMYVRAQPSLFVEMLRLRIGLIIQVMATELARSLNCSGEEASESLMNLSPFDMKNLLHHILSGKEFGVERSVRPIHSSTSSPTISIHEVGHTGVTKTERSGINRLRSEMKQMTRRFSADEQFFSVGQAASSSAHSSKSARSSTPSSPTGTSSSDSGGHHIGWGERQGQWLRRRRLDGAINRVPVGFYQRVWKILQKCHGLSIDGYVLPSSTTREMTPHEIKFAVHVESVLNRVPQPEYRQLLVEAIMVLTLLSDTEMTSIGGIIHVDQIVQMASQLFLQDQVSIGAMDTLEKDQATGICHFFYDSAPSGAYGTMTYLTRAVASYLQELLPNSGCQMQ
# Receptor-interacting serine/threonine-protein kinase 1 (Homo sapiens), sequence (Q13546 whole entry): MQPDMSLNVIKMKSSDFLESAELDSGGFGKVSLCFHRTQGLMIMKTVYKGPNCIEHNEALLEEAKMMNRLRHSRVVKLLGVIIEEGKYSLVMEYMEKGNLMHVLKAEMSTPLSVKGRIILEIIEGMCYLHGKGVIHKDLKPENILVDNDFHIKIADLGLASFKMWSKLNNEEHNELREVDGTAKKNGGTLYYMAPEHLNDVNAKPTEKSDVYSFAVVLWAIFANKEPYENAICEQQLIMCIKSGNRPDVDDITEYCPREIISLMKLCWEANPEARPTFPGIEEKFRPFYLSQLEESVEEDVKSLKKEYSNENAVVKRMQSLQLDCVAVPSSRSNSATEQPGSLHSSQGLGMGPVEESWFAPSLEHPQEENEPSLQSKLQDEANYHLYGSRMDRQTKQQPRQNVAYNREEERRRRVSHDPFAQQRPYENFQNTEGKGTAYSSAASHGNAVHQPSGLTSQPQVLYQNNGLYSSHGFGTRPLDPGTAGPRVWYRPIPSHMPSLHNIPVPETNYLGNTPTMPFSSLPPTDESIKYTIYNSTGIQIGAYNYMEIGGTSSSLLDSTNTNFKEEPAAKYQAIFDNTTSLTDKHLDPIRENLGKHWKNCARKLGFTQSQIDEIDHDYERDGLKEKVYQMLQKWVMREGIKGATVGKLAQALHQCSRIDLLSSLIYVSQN
# Tyrosine-protein kinase HCK (Homo sapiens), sequence (P08631 2-526 limits assumed): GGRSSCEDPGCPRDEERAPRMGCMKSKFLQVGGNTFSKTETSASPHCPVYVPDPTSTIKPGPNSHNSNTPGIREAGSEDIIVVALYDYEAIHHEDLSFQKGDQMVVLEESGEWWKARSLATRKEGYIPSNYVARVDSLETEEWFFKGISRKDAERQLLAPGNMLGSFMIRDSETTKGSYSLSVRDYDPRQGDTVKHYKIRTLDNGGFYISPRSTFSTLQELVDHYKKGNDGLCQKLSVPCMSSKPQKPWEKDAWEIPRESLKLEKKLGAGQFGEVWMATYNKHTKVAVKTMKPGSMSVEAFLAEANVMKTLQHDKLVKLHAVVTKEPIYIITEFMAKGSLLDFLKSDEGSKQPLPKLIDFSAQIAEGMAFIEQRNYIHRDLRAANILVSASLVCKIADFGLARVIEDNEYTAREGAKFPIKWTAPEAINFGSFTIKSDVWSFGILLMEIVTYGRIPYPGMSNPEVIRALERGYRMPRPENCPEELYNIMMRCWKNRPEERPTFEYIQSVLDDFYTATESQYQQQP
# Ephrin type-A receptor 1 (Homo sapiens), sequence (P21709 whole entry): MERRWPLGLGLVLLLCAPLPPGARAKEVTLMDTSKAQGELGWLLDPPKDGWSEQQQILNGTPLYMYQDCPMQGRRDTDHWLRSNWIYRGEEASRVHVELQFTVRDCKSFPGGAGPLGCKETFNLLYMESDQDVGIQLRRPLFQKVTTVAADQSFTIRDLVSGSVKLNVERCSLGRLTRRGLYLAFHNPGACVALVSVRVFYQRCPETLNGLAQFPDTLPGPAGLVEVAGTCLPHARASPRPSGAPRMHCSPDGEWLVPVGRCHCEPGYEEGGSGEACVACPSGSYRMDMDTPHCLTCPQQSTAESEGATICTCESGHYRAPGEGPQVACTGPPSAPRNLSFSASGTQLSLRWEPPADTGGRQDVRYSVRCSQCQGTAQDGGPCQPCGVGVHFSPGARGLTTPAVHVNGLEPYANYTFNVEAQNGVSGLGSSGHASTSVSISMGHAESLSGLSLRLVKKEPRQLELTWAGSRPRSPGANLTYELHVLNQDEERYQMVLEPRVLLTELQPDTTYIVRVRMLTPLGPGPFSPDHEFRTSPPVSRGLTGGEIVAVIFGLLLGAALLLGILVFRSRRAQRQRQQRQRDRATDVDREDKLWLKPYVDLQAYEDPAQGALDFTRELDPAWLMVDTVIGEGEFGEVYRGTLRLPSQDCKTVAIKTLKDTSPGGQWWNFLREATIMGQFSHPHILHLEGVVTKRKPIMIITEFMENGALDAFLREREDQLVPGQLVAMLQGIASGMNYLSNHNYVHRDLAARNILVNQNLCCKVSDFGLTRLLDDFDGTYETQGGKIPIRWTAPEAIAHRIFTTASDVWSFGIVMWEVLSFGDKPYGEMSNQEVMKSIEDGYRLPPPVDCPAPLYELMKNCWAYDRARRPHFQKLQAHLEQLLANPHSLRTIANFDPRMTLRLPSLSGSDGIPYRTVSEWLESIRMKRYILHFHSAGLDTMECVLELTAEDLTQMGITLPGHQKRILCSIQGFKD
compound,measurement,setting,value
Cc1ccc(-c2cnc([C@@]3(O)CC[C@H](C(=O)O)C(C)(C)C3)s2)cc1Nc1cccc(C(F)(F)F)n1 [MRL-SYKi-NC],residual activity,[1],67.1%
same,residual activity,[2],85.9%
same,residual activity,[3],85.2%
same,residual activity,[4],100%
same,residual activity,[5],77.3%
same,residual activity,[6],92.6%
same,residual activity,[7],98.6%
same,residual activity,[8],90.6%
same,inhibition,[9],23%
same,residual activity,[10],100%
same,residual activity,[11],100%
same,residual activity,[12],84.6%
same,residual activity,[13],74.5%
same,residual activity,[14],100%
same,residual activity,[15],86.8%
same,residual activity,[16],98.7%
same,residual activity,[17],85.4%
same,residual activity,[18],100%
same,residual activity,[19],100%
same,residual activity,[20],100%
same,residual activity,[21],100%
same,residual activity,[22],92.6%
same,residual activity,[23],90.1%
same,residual activity,[24],86.6%
same,residual activity,[25],76.6%
same,inhibition,[26],6.69%
same,residual activity,[27],81.2%
same,residual activity,[28],96.2%
same,residual activity,[29],96.2%
same,residual activity,[30],97.3%
same,residual activity,[31],100%
same,residual activity,[32],100%
same,residual activity,[33],91.2%
same,residual activity,[34],93%
same,residual activity,[35],95.4%
same,residual activity,[36],98.3%
same,residual activity,[37],71.9%
same,residual activity,[38],100%
same,residual activity,[39],0%
same,residual activity,[40],73.8%
same,residual activity,[41],100%
same,residual activity,[42],56.5%
same,residual activity,[43],95.9%
same,residual activity,[44],90.7%
same,residual activity,[45],100%
Cc1cc(Nc2nccc(C)n2)cc(-c2cnc([C@@]3(O)CC[C@H](C(=O)O)C(C)(C)C3)s2)c1 [MRL-SYKi],residual activity,[1],100%
same,residual activity,[2],78.2%
same,residual activity,[3],25.2%
same,residual activity,[4],94.2%
same,residual activity,[5],89.9%
same,residual activity,[6],100%
same,residual activity,[7],81.2%
same,residual activity,[8],100%
same,inhibition,[9],8.6%
same,residual activity,[10],100%
same,residual activity,[11],70.7%
same,residual activity,[12],77.7%
same,residual activity,[13],100%
same,residual activity,[14],100%
same,residual activity,[15],68.1%
same,residual activity,[16],100%
same,residual activity,[17],100%
same,residual activity,[18],100%
same,residual activity,[19],100%
same,residual activity,[20],74.6%
same,residual activity,[21],39.9%
same,residual activity,[22],31.8%
same,residual activity,[23],100%
same,residual activity,[24],92.9%
same,residual activity,[25],75.3%
same,inhibition,[26],17.4%
same,residual activity,[27],100%
same,residual activity,[28],77.3%
same,residual activity,[29],100%
same,residual activity,[30],53.1%
same,residual activity,[31],100%
same,residual activity,[32],92.7%
same,residual activity,[33],93%
same,residual activity,[34],100%
same,residual activity,[35],100%
same,residual activity,[36],85.8%
same,residual activity,[37],83.3%
same,residual activity,[38],100%
same,residual activity,[39],100%
same,residual activity,[40],100%
same,residual activity,[41],100%
same,residual activity,[42],100%
same,residual activity,[43],87.1%
same,residual activity,[44],100%
same,residual activity,[45],100%
